Assays:
NAMPT = NAMPT (Homo sapiens (Human), UniProt P43490); test: Biochemical Inhibition Assay (NAMPT enzymatic reaction, NMN by mass spectrometry); conditions: recombinant His-tagged NAMPT 33 nM, 1 μM NAM, 30 minutes; read-out: Biochem IC50
Procedure: Biochemical Inhibition Assay NAMPT Protein Purification Recombinant His-tagged NAMPT was produced in E. coli cells, purified over a Ni column, and further purified over a size-exclusion column by XTAL Biostructures. The NAMPT Enzymatic Reaction The NAMPT enzymatic reactions were carried out in Buffer A (50 mM Hepes pH 7.5, 50 mM NaCl, 5 mM MgCl2, and 1 mM THP) in 96-well V-bottom plates. The compound titrations were performed in a separate dilution plate by serially diluting the compounds in DMSO to make a 100× stock. […] Background and signal strength was determined by addition (or non-addition) of a serial dilution of NMN to a pre-quenched enzyme and cofactor mix. Quantification of NMN A mass spectrometry-based assay was used to measure the NAMPT reaction product (NMN) and the internal control (L-Cystathionine). NMN and L-Cystathionine were detected using the services of Biocius Lifesciences with the RapidFire system. In short, the NMN and L-Cystathionine are bound to a graphitic carbon cartridge in 0.1% formic acid, eluted in 30% acetonitrile buffer, and injected into a Sciex 4000 mass spectrometer. The components of the sample were ionized with electrospray ionization and the positive ions were detected. […] The fragments are quantified and the analyzed by the following method. % Inhibitions are Determined Using this Method. First the NMN signal is normalized to the L-Cystathionine signal by dividing the NMN signal by the L-Cystathionine signal for each well. The signal from the background wells are averaged and subtracted from the test plates. […] IC50s are Determined Using Excel and this Formula.

A2780 cells = test: In-Vitro Cell Proliferation Assay (SRB); type: cell-based
Procedure: In-Vitro Cell Proliferation Assay […] After overnight incubation at 37° C. and 5% CO2, the compound titrations were performed in a separate dilution plate by serially diluting the compounds in DMSO to make a 1000× stock. The compounds were then further diluted to 10× final concentration in culture media, whereupon 20 μL of each dilution was added to the plated cells with controls (e.g. DMSO and blank) to make a final volume of 200 μL. The final DMSO concentration in each well was 0.1%. The plates were then incubated for 72 hours at 37° C. in a 5% CO2 incubator. The number of viable cells was then assessed using sulforhodamine B (SRB) assay. Cells were fixed at 4° C. for 1 hour with the addition of 50 μL 30% trichloroacetic acid (TCA) to make a final concentration of 6% TCA. The plates were washed four times with H2O and allowed to dry for at least 1 hour, whereupon 100 μL of a […] SRB in 1% acetic acid solution was added to each well and incubated at room temperature for at least 30 minutes. The plates were then washed three times with 1% acetic acid, dried, and treated with 100 μL of 10 mM Tris-Base solution. The plates were then read in a microplate reader at an absorbance of 570 nm. Background was generated on a separate plate with media only. Method for Determining % Inhibition First, the signals from the background plate are averaged, then the background was subtracted from the test plates. […] Formula for Determining IC50 Values: […] Specificity of Cytotoxicity. Inhibition of NAMPT could be reversed by the addition of NAM or NMN. The specificity of the compounds were determined via cell viability assay in the presence of the compound and either NAM or NMN. Percent inhibitions were determined using the method given above.

Sequence of NAMPT (P43490 whole entry): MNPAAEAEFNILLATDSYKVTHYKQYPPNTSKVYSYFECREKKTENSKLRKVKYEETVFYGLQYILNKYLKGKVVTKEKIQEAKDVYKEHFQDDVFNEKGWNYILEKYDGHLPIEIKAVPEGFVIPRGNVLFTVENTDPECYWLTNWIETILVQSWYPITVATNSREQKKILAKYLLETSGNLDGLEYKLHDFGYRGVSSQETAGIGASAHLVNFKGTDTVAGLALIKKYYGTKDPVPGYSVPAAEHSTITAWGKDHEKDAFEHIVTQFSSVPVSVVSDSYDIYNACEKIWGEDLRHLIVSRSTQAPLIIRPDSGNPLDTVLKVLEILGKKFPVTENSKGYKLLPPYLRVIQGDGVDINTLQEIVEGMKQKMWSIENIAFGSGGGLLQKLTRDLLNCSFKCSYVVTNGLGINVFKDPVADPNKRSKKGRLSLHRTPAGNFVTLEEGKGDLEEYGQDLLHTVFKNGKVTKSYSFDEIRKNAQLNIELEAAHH

SMILES	IC50 (NAMPT) [nM]	IC50 (A2780 cells; Homo sapiens, A2780, 72 h) [nM]	IC50 (A2780 cells; 72 hours) [nM]
N#CN=C(NCc1ccc(S(=O)(=O)c2ccc(Cl)c(Cl)c2)cc1)Nc1ccncc1 [2-cyano-1-({4-[(3,4-dichlorobenzene)sulfonyl]phenyl}methyl)-3-(pyridin-4-yl)guanidine]	1.7	1	–
Cc1ncccc1S(=O)(=O)c1ccc(CNC(=NC#N)Nc2ccncc2)cc1 [2-cyano-1-{[4-(2-methylpyridine-3-sulfonyl)phenyl]methyl}-3-(pyridin-4-yl)guanidine]	4.8	7.5	–
N#CN=C(NCc1ccc(S(=O)(=O)c2cc(F)cc(F)c2)cc1)Nc1ccncc1 [2-cyano-1-({4-[(3,5-difluorobenzene)sulfonyl]phenyl}methyl)-3-(pyridin-4-yl)guanidine]	1	2	–
CS(=O)(=O)c1ccc(S(=O)(=O)c2ccc(CNC(=NC#N)Nc3ccncc3)cc2)cc1 [2-cyano-1-({4-[(4-methanesulfonylbenzene)sulfonyl]phenyl}methyl)-3-(pyridin-4-yl)guanidine]	4.5	13.1	–
Cc1cccc(S(=O)(=O)c2ccc(CNC(=NC#N)Nc3ccncc3)cc2)c1C [2-cyano-1-({4-[(2,3-dimethylbenzene)sulfonyl]phenyl}methyl)-3-(pyridin-4-yl)guanidine]	4	3.5	–
N#CN=C(NCc1ccc(S(=O)(=O)c2cccc(C(=O)NC3CC3)c2)cc1)Nc1ccncc1 [3-[(4-{[2-cyano-3-(pyridin-4-yl)carbamimidamido]methyl}benzene)sulfonyl]-N-cyclopropylbenzamide]	2.2	20	–
Cc1ccc(S(=O)(=O)c2ccc(CNC(=NC#N)Nc3ccncc3)cc2)cc1Cl [1-({4-[(3-chloro-4-methylbenzene)sulfonyl]phenyl}methyl)-2-cyano-3-(pyridin-4-yl)guanidine]	1.9	1.6	–
CC(C)Oc1ccc(S(=O)(=O)c2ccc(CNC(=NC#N)Nc3ccncc3)cc2)cc1 [2-cyano-1-[(4-{[4-(propan-2-yloxy)benzene]sulfonyl}phenyl)methyl]-3-(pyridin-4-yl)guanidine]	2.6	1.5	–
N#CN=C(NCc1ccc(S(=O)(=O)c2cccc3cccnc23)cc1)Nc1ccncc1 [2-cyano-3-(pyridin-4-yl)-1-{[4-(quinoline-8-sulfonyl)phenyl]methyl}guanidine]	2.9	14.1	–
Cn1ncc2ccc(S(=O)(=O)c3ccc(CN/C(=N\C#N)Nc4ccncc4)cc3)cc21 [2-cyano-1-{[4-(1-methyl-1H-indazole-6-sulfonyl)phenyl]methyl}-3-(pyridin-4-yl)guanidine]	1	1.6	–
CC(=O)c1ccc(S(=O)(=O)c2ccc(CNC(=NC#N)Nc3ccncc3)cc2)cc1 [1-({4-[(4-acetylbenzene)sulfonyl]phenyl}methyl)-2-cyano-3-(pyridin-4-yl)guanidine]	5	7.3	–
N#CN=C(NCc1ccc(S(=O)(=O)c2ccccc2OC(F)(F)F)cc1)Nc1ccncc1 [2-cyano-1-(pyridin-4-yl)-3-[(4-{[2-(trifluoromethoxy)benzene]sulfonyl}phenyl)methyl]guanidine]	4	–	0.6
N#CN=C(NCc1ccc(S(=O)(=O)c2cc(Cl)cc(C(F)(F)F)c2)cc1)Nc1ccncc1 [1-[(4-{[3-chloro-5-(trifluoromethyl)benzene]sulfonyl}phenyl)methyl]-2-cyano-3-(pyridin-4-yl)guanidine]	3.3	1.6	–
CCNC(=O)c1cccc(S(=O)(=O)c2ccc(CNC(=NC#N)Nc3ccncc3)cc2)c1 [3-[(4-{[2-cyano-3-(pyridin-4-yl)carbamimidamido]methyl}benzene)sulfonyl]-N-ethylbenzamide]	5.4	27	–
Cc1ccc(F)cc1S(=O)(=O)c1ccc(CNC(=NC#N)Nc2ccncc2)cc1 [2-cyano-1-({4-[(5-fluoro-2-methylbenzene)sulfonyl]phenyl}methyl)-3-(pyridin-4-yl)guanidine]	4.5	3.3	–
N#CN=C(NCc1ccc(S(=O)(=O)c2cc(F)cc(C(F)(F)F)c2)cc1)Nc1ccncc1 [2-cyano-1-[(4-{[3-fluoro-5-(trifluoromethyl)benzene]sulfonyl}phenyl)methyl]-3-(pyridin-4-yl)guanidine]	6	1.5	–
Cc1ccccc1S(=O)(=O)c1ccc(CNC(=NC#N)Nc2ccncc2)cc1 [2-cyano-1-({4-[(2-methylbenzene)sulfonyl]phenyl}methyl)-3-(pyridin-4-yl)guanidine]	7.9	5.6	–
N#CN=C(NCc1ccc(S(=O)(=O)c2cc(Cl)cc(Cl)c2)cc1)Nc1ccncc1 [2-cyano-1-({4-[(3,5-dichlorobenzene)sulfonyl]phenyl}methyl)-3-(pyridin-4-yl)guanidine]	11.2	1.6	–
CN(C)C(=O)c1cc(F)cc(S(=O)(=O)c2ccc(CNC(=NC#N)Nc3ccncc3)cc2)c1 [3-[(4-{[2-cyano-3-(pyridin-4-yl)carbamimidamido]methyl}benzene)sulfonyl]-5-fluoro-N,N-dimethylbenzamide]	4.6	12.8	–
N#CN=C(NCc1ccc(S(=O)(=O)c2cncc(F)c2)cc1)Nc1ccncc1 [2-cyano-1-{[4-(5-fluoropyridine-3-sulfonyl)phenyl]methyl}-3-(pyridin-4-yl)guanidine]	5.2	11.9	–
Cn1c(S(=O)(=O)c2ccc(CNC(=NC#N)Nc3ccncc3)cc2)cc2ccccc21 [2-cyano-1-{[4-(1-methyl-1H-indole-2-sulfonyl)phenyl]methyl}-3-(pyridin-4-yl)guanidine]	2.1	1.2	–
N#CN=C(NCc1ccc(S(=O)(=O)c2ccnc(N3CCOCC3)c2Cl)cc1)Nc1ccncc1 [1-({4-[3-chloro-2-(morpholin-4-yl)pyridine-4-sulfonyl]phenyl}methyl)-2-cyano-3-(pyridin-4-yl)guanidine]	3.4	4.1	–
CC(C)c1cccc(S(=O)(=O)c2ccc(CNC(=NC#N)Nc3ccncc3)cc2)c1 [2-cyano-1-[(4-{[3-(propan-2-yl)benzene]sulfonyl}phenyl)methyl]-3-(pyridin-4-yl)guanidine]	2.9	1.1	–
N#CN=C(NCc1ccc(S(=O)(=O)c2ccc(-n3cccn3)cc2)cc1)Nc1ccncc1 [2-cyano-1-[(4-{[4-(1H-pyrazol-1-yl)benzene]sulfonyl}phenyl)methyl]-3-(pyridin-4-yl)guanidine]	3.3	3.4	–
N#C/N=C(\NCc1ccc(S(=O)(=O)c2ccccc2)cc1)NCc1ccn2ccnc2c1 [2-cyano-1-(imidazo[1,2-a]pyridin-7-ylmethyl)-3-(4-(phenylsulfonyl)benzyl)guanidine]	266	326	–
CC(C)Oc1cccc(S(=O)(=O)c2ccc(CNC(=NC#N)Nc3ccncc3)cc2)c1 [2-cyano-1-[(4-{[3-(propan-2-yloxy)benzene]sulfonyl}phenyl)methyl]-3-(pyridin-4-yl)guanidine]	3.2	5.7	–
Cc1cc(F)ccc1S(=O)(=O)c1ccc(CNC(=NC#N)Nc2ccncc2)cc1 [2-cyano-1-({4-[(4-fluoro-2-methylbenzene)sulfonyl]phenyl}methyl)-3-(pyridin-4-yl)guanidine]	5.4	5.4	–
N#CN=C(NCc1ccc(S(=O)(=O)c2ccc3ncccc3c2)cc1)Nc1ccncc1 [2-cyano-3-(pyridin-4-yl)-1-{[4-(quinoline-6-sulfonyl)phenyl]methyl}guanidine]	6.2	6.6	–
N#CN=C(NCc1ccc(S(=O)(=O)c2ccc3c(c2)OCO3)cc1)Nc1ccncc1 [1-{[4-(2H-1,3-benzodioxole-5-sulfonyl)phenyl]methyl}-2-cyano-3-(pyridin-4-yl)guanidine]	1.8	3.3	–

Source: patent US9676721B2, “Compounds and compositions for the inhibition of NAMPT” (FORMA TM, LLC, priority 2010, dated 2017)
